Results reported in patent publication US4692517A, “C-3' acylaminooxy-7-[(2-aminothiazol-4-yl)-α-(substituted-oximino)acety l]cephalosporin derivatives” (American Home Products Corporation, priority 1986, dated 1987).
In brackets after ≈: the same amount, converted by molar mass.

How the values were obtained:
Type in all cases: cell-based
[1] = system: Escherichia coli ATCC 25922; test: Agar dilution MIC, Escherichia coli ATCC 25922; conditions: ATCC25922, 18 hours at 35° C., read-out: Minimal Inhibitory Concentration (MIC)
Experimental: (§1) The compounds of the invention are tested for their antibacterial activity. The test is carried out as follows:
(§2) The organisms used in the test comprise the following:
(§3) Staphylococcus aureus (penicillin-sensitive and resistant), Pseudomonas aeruginosa, Escherichia coli, […] pneumoniae, Bordetella bronchiseptica, Proteus vulgaris, P. mirabilis, Acinetobacter calcoaceticus.
(§4) Test organisms may be added or deleted in order to reflect current clinical patterns of antibiotic susceptibility or shifts in pathogenic potential.
(§5) Organisms are normally grown for 18 hours in Brain Heart Infusion at 35° C. Cultures are adjusted with saline to MacFarland No. 1.5 standard prior to use.
(§6) Stock concentrations (e.g. 2,500 μg or units per ml) are prepared in a suitable vehicle. Two-fold dilutions are made. One ml quantities of each dilution are incorporated in 9 ml of the appropriate agar (e.g. Seed) in sterile Petri plates. The hardened surface is inoculated with test organisms by use of a Steers replicating device. The plates are incubated (e.g. 18 hours at 35° C.) and activity is determined.

[2] = system: Serratia marcescens ATCC 13880; test: Agar dilution MIC, Serratia marcescens ATCC 13880; conditions: ATCC13880, 18 hours at 35° C., read-out: Minimal Inhibitory Concentration (MIC)
Experimental: as §1, §2, §3, §4, §5, §6

[3] = system: Pseudomonas aeruginosa ATCC 27853; test: Agar dilution MIC, Pseudomonas aeruginosa ATCC 27853; conditions: ATCC27853, 18 hours at 35° C., read-out: Minimal Inhibitory Concentration (MIC)
Experimental: as §1, §2, §3, §4, §5, §6

[4] = system: Enterobacter cloacae ATCC 13047; test: Agar dilution MIC, Enterobacter cloacae ATCC 13047; conditions: ATCC13047, 18 hours at 35° C., read-out: Minimal Inhibitory Concentration (MIC)
Experimental: as §1, §2, §3, §4, §5, §6

[5] = system: Proteus vulgaris A 84354 1; test: Agar dilution MIC, Proteus vulgaris A 84354 1; conditions: A843541, 18 hours at 35° C., read-out: Minimal Inhibitory Concentration (MIC)
Experimental: as §1, §2, §3, §4, §5, §6

[6] = system: Klebsiella pneunomiae KL-1; test: Agar dilution MIC, Klebsiella pneunomiae KL-1; conditions: KL1, 18 hours at 35° C., read-out: Minimal Inhibitory Concentration (MIC)
Experimental: as §1, §2, §3, §4, §5, §6

[7] = system: Staphylococcus aureus ATCC 29213; test: Agar dilution MIC, Staphylococcus aureus ATCC 29213; conditions: ATCC29213, 18 hours at 35° C., read-out: Minimal Inhibitory Concentration (MIC)
Experimental: as §1, §2, §3, §4, §5, §6

[8] = system: Streptococcus faecalis ATCC 29212; test: Agar dilution MIC, Streptococcus faecalis ATCC 29212; conditions: Enterococcus faecalis, ATCC29212, 18 hours at 35° C., read-out: Minimal Inhibitory Concentration (MIC)
Experimental: as §1, §2, §3, §4, §5, §6

- MIC [1]: 4 µg/mL (≈ 6.84 µM)
- MIC [2]: 16 µg/mL (≈ 27.4 µM)
- MIC [3]: 128 µg/mL (≈ 219 µM)
- MIC [4]: 32 µg/mL (≈ 54.7 µM)
- MIC [5]: 1 µg/mL (≈ 1.71 µM)
- MIC [6]: 1 µg/mL (≈ 1.71 µM)
- MIC [7]: 64 µg/mL (≈ 109 µM)
- MIC [8]: 128 µg/mL (≈ 219 µM)
Compound: CO/N=C(\C(=O)N[C@@H]1C(=O)N2C(C(=O)OC(C)(C)C)=C(CONC(=O)OC(C)(C)C)CS[C@H]12)c1csc(N)n1 [Example 1B, (6R,7R)-7-[[(Z)-(2-amino-4-thiazolyl)(methoxyimino)acetyl]amino]-3-[[[[(1,1-dimethylethoxy)carbonyl]amino]oxy]methyl]-8-oxo-5-thia-1-azabicyclo[4.2.0]oct-2-ene-2-carboxylic acid 1,1-dimethylethyl ester]
